Here are results for one compound from patent US20230372348A1, “LIPID FORMULATIONS OF TRIAZOLOQUINAZOLINONE COMPOUNDS” (Gabather AB, priority 2020, published 2023).

The structures appear in SMILES notation.

Data set [1] in a line: Single ascending dose (SAD) study, pharmacokinetics in healthy male subjects. It is filed as in vivo, human. How it is done:
Lipid formulations containing PHOSAL® 53 MCT delivered higher exposure in rat and dog when compared to other formulation (e.g., nanosuspension formulation and PEG formulations). […] Formulation 1H containing 70% PHOSAL® 53 MCT and 30% Labrasol® ALF was selected for manufacturing of soft gelatin capsules for clinical trials with a drug formulation fill weight of 500 mg and a total capsule weight is 696 mg. Two dose strength (0.1 mg/subject and 2 mg/subject) and placebo were produced according to GMP for clinical testing.
The clinical development programme in healthy volunteers started with a double-blind, randomised, placebo controlled single ascending dose (SAD) study in males. Seven dose cohorts received increasing oral doses of Compound (1a) or placebo, dose range 0.05-2 mg. Each cohort consisted of 5-6 subjects receiving Compound (1a) and 2 subjects receiving placebo, with the primary objective to evaluate safety and tolerability, the secondary objective being evaluation of pharmacokinetics (PK).
A summary of PK results from the SAD study are shown below in Table 8.

Data set [2] concerns benzodiazepine site of the GABAA receptor complex. As to conditions: cited from earlier work.
Data set [3] is described as follows: Single dose pharmacokinetic evaluation of formulations in male Sprague Dawley rats. Format: in vivo. The settings on record: plasma, iv, rat. On the procedure: Single dose pharmacokinetic evaluations of formulations F12-F22 were carried out using male Sprague Dawley rats using conditions as described in Table 1.
Animal ID's were labelled by pen marks on tail and body weight was recorded for calculation of test item volume before administration. Blood was collected capillary from vena saphena from the rats in EDTA coated collection tubes and centrifuged for five minutes at 2000G. Plasma was transferred to pre-labelled Eppendorf tubes and immediately stored in −20° C. The pharmacokinetic analysis was performed using PK Solutions 2.0™, Noncompartmental Pharmacokinetic Data Analysis software.
Cmax (nM) is the maximum concentration. AUC 0-24 (nM*h) is the area under the curve over 24 hours. Tmax (h) is the maximum time in hours. F % is bioavailability. Frel % is the relative bioavailability.

`Cc1ccc(-n2nc3c4cc(Cc5ccccc5)ccc4[nH]c(=O)n3c2=O)cc1` [Compound (1a), 9-benzyl-2-(4-methylphenyl)-2,6-dihydro[1,2,4]triazolo[4,3-c]quinazoline-3,5-dione]: the “dose proportionality of Cmax” value in data set [1] (dose range 0.05 mg-2 mg) is “dose proportional”. The “dose proportionality of exposure” value in data set [1] (dose range 0.05 to 2 mg, oral soft gelatin capsules, fasting healthy male volunteers) is reported as “close to dose proportional”. The selectivity entry in data set [2] is on record as “selective for the GABAA receptor complex”. Moreover, in data set [2] (rat membrane preparations), the “inhibition of 3H-Flumazenil binding” value is on record as “very potent inhibitor”. The “potency in displacing 3H-Flumazenil relative to diazepam” value in data set [2] (rat membrane preparations, more potent than diazepam) is 10 times. The bioavailability – broadly, the share of a dose that reaches the circulation, judged against a reference dose that is usually intravenous – in data set [3] (intravenously 1 mg/kg (reference), read-out: F % (bioavailability)) came to 100%. The AUC(0-t) in data set [3] (intravenously 1 mg/kg, read-out: AUC 0-24) is 1.18 µM·h.
